Laboratory results as given in patent US20210393645A1, “TREATMENT FOR PROGRESSIVE MULTIPLE SCLEROSIS” (UTI LIMITED PARTNERSHIP, priority 2016, published 2021).
Structures can show the parent of a compound that is named as a salt. Where two headings read alike, the source gives them in different places.

Test system: human neurons
Experiment: Iron (FeSO4) mediated neurotoxicity screening, MAP-2 positive neurons counted
Type: cell-based
Details: for viability at 10 µM: Homo sapiens, Neuron, read-out: Drug % control (mean): number of neurons normalized to untreated control
Protocol: Human neurons were isolated from brain tissues of therapeutically aborted 15-20 week old fetuses, in accordance with ethics approval of the University of Calgary ethics committee, after written informed consent of the pregnant donors. Neurons were isolated as previously described (Vecil et al., 2000) brain specimens were washed in phosphate buffered saline (PBS) to remove blood, followed by removal of meninges. […] Thereafter, the digestion was stopped by addition of 4 ml fetal calf serum (FCS). […] Cells were cultured in feeding medium of minimal essential medium (MEM) supplemented with 10% fetal bovine serum (FBS), 1 μM sodium pyruvate, 10 μM glutamine, 1× non-essential amino acids, 0.1% dextrose and 1% penicillin/streptomycin (all culture supplements from Invitrogen, Burlington, Canada). […] For experiments, the neuron-enriched cultures were retrypsinized and cells were plated in poly-L-ornithine pre-coated 96-well plates at a density of 100,000 cells/well in 100 μl of the complete medium supplemented with cytosine arabinoside. […] All conditions were performed in quadruplicates. A day later cells were fixed using 4% paraformaldehyde (PFA) and stored in PBS in 4° C.
Briefly, there were 80 compounds located in specific wells on each plate (e. g. B07). […] Each compound was supplied at a concentration of 10 mM dissolved in DMSO.
After filtering with a 0.2 μm filter, FeSO4 was added to cells in a final concentration of 25-50 μM in a volume of 50 μl medium to the cells. Rotenone was dissolved in dimethyl sulfoxide (DMSO) and used in a final concentration of 10 μM.
Staining was performed at room temperature. A blocking buffer was first introduced for 1 h followed by incubation with primary antibody overnight in 4° C.
Cell nuclei were stained with Hoechst S769121 (nuclear yellow). Cells were stored in 4° C. in the dark before imaging.
Images were taken using the automated ImageXpress® imaging system (Molecular Devices, Sunnyvale, Calif.) through a 10x objective microscope lens, displaying 4 or 9 sites per well. […] Cells were defined according to fluorescence intensity and size at different wavelengths. Data from all sites per well were averaged to one data point.
Neurons were pre-incubated with each compound for 1 h followed by application of FeSO4.

[1] = drug 10 μM 1 h before FeSO4 25 or 50 μM, MAP-2 neurons after 24 h

Row | Compound | viability at 10 µM [1] [%] | other results
1 | NC(=O)N1c2ccccc2CC(=O)c2ccccc21 [OXCARBAZEPINE] | 38.2 | 
2 | NC[C@@H]1O[C@H](O[C@H]2[C@@H](O)[C@H](O[C@@H]3[C@@H](O)[C@H](N)C[C@H](N)[C@H]3O[C@H]3O[C@H](CO)[C@@H](O)[C@H](O)[C@H]3N)O[C@@H]2CO)[C@H](N)[C@@H](O)[C@@H]1O [PAROMOMYCIN SULFATE] | 35.3 | 
3 | CC(=O)CCCCn1c(=O)c2c(ncn2C)n(C)c1=O [PENTOXIFYLLINE] | 66.5 | 
4 | CCC[C@H](N[C@@H](C)C(=O)N1[C@H](C(=O)O)C[C@@H]2CCCC[C@@H]21)C(=O)OCC [PERINDOPRIL ERBUMINE] | 49.4 | 
5 | OCCN1CCN(CCCN2c3ccccc3Sc3ccc(Cl)cc32)CC1 [PERPHENAZINE] | 78.8 | 
6 | Nc1ccc(/N=N/c2ccccc2)c(N)n1 [PHENAZOPYRIDINE HYDROCHLORIDE] | 101 | 
7 | NNCCc1ccccc1 [PHENELZINE SULFATE] | 46.7 | 
8 | O=C1NC(=O)C(c2ccccc2)(c2ccccc2)N1 [PHENYTOIN SODIUM] | 30.1 | 
9 | CC(C)NCC(O)COc1cccc2[nH]ccc12 (stereo not shown) [PINDOLOL] | 62.6 | 
10 | CCc1ccc(CCOc2ccc(CC3SC(=O)NC3=O)cc2)nc1 (stereo not shown) [PIOGLITAZONE HYDROCHLORIDE] | 84.6 | 
11 | CN1C(C(=O)Nc2ccccn2)=C(O)c2ccccc2S1(=O)=O [PIROXICAM] | 36.2 | 
12 | Nc1ccc(C(=O)O)cc1 [POTASSIUM p-AMINOBENZOATE] | 44.5 | 
13 | CC[C@H](C)C(=O)O[C@H]1C[C@H](O)C=C2C=C[C@H](C)[C@H](CC[C@@H](O)C[C@@H](O)CC(=O)O)[C@H]21 [PRAVASTATIN SODIUM] | 40.5 | 
14 | CC(C)C[C@H](CN)CC(=O)O [PREGABALIN] |  | viability at 10 µM (24 h): 47.8%
15 | COc1cc(NC(C)CCCN)c2ncccc2c1 (stereo not shown) [PRIMAQUINE DIPHOSPHATE] |  | viability at 10 µM (24 h): 89.1%
16 | CCC1(c2ccccc2)C(=O)NCNC1=O [PRIMIDONE] | 45.2 | 
17 | CCCN(CCC)S(=O)(=O)c1ccc(C(=O)O)cc1 [PROBENECID] | 71.5 | 
18 | CCN(CC)CCNC(=O)c1ccc(N)cc1 [PROCAINAMIDE HYDROCHLORIDE] | 64.3 | 
19 | CN1CCN(CCCN2c3ccccc3Sc3ccc(Cl)cc32)CC1 [PROCHLORPERAZINE EDISYLATE] | 4.88 | 
20 | OC(CCN1CCCC1)(c1ccccc1)C1CCCCC1 (stereo not shown) [PROCYCLIDINE HYDROCHLORIDE] | 95.6 | 
21 | CCCNCC(O)COc1ccccc1C(=O)CCc1ccccc1 (stereo not shown) [PROPAFENONE HYDROCHLORIDE] | 51.3 | 
22 | CCCc1cc(=O)[nH]c(=S)[nH]1 [PROPYLTHIOURACIL] | 35.9 | 
23 | CN[C@@H](C)[C@@H](O)c1ccccc1 [PSEUDOEPHEDRINE HYDROCHLORIDE] | 26.7 | 
24 | NC(=O)c1cnccn1 [PYRAZINAMIDE] | 67.2 | 
25 | CN(C)C(=O)Oc1ccc[n+](C)c1 [PYRIDOSTIGMINE BROMIDE] | 35.8 | 
26 | CCOC(=O)[C@H](CCc1ccccc1)N[C@@H](C)C(=O)N1Cc2ccccc2C[C@H]1C(=O)O [QUINAPRIL HYDROCHLORIDE] | 41.5 | 

Row | Compound | viability at 10 µM [1] [%] | other results
27 | C=C[C@H]1C[N@@]2CC[C@H]1C[C@H]2[C@H](O)c1ccnc2ccc(OC)cc12 [QUININE SULFATE] | 21.3 | 
28 | CNC(=C[N+](=O)[O-])NCCSCc1ccc(CN(C)C)o1 [RANITIDINE] | 40.2 | 
29 | CO[C@H]1/C=C/O[C@@]2(C)Oc3c(C)c(O)c4c(O)c(c(/C=N/N5CCN(C)CC5)c(O)c4c3C2=O)NC(=O)/C(C)=C\C=C\[C@H](C)[C@H](O)[C@@H](C)[C@@H](O)[C@@H](C)[C@H](OC(C)=O)[C@@H]1C [RIFAMPIN] |  | viability at 10 µM (24 h): 95.5%
30 | CO[C@H]1/C=C/O[C@@]2(C)Oc3c(C)c(O)c4c(O)c(c5c(nc6cc(C)ccn65)c4c3C2=O)NC(=O)/C(C)=C\C=C\[C@H](C)[C@H](O)[C@@H](C)[C@@H](O)[C@@H](C)[C@H](OC(C)=O)[C@@H]1C [RIFAXIMIN] | 53.8 | 
31 | CN(CCOc1ccc(CC2SC(=O)NC2=O)cc1)c1ccccn1 (stereo not shown) [ROSIGLITAZONE] | 77.6 | 
32 | CC(C)c1nc(N(C)S(C)(=O)=O)nc(-c2ccc(F)cc2)c1/C=C/[C@@H](O)C[C@@H](O)CC(=O)O [ROSUVASTATIN] | 35.4 | 
33 | CC(=O)S[C@@H]1CC2=CC(=O)CC[C@]2(C)[C@H]2CC[C@@]3(C)[C@@H](CC[C@@]34CCC(=O)O4)[C@H]12 [SPIRONOLACTONE] | 37.1 | 
34 | Cc1cc(NS(=O)(=O)c2ccc(N)cc2)no1 [SULFAMETHOXAZOLE] | 16.2 | 
35 | O=C1C(CC[S+]([O-])c2ccccc2)C(=O)N(c2ccccc2)N1c1ccccc1 (stereo not shown) [SULFINPYRAZONE] | 46.5 | 
36 | Cc1noc(NS(=O)(=O)c2ccc(N)cc2)c1C [SULFISOXAZOLE] | 38.3 | 
37 | CN(C)[C@@H]1C(O)=C(C(N)=O)C(=O)[C@@]2(O)C(O)=C3C(=O)c4c(O)cccc4[C@@](C)(O)[C@H]3C[C@@H]12 [TETRACYCLINE HYDROCHLORIDE] | 25 | 
38 | Cn1c(=O)c2[nH]cnc2n(C)c1=O [THEOPHYLLINE] |  | viability at 10 µM (24 h): 23.3%
39 | Nc1nc2nc[nH]c2c(=S)[nH]1 [THIOGUANINE] | 21.7 | 
40 | CC(C)(C)NC[C@H](O)COc1nsnc1N1CCOCC1 [TIMOLOL MALEATE] | 11.1 | 
41 | CCCCNC(=O)NS(=O)(=O)c1ccc(C)cc1 [TOLBUTAMIDE] | 9.09 | 
42 | Cc1c(Cl)cccc1Nc1ccccc1C(=O)O [TOLFENAMIC ACID] | 40.3 | 
43 | CC1(C)O[C@@H]2[C@@H](CO[C@@]3(COS(N)(=O)=O)OC(C)(C)O[C@@H]23)O1 [TOPIRAMATE] | 46.1 | 
44 | CCOC(=O)[C@H](CCc1ccccc1)N[C@@H](C)C(=O)N1[C@H](C(=O)O)C[C@H]2CCCC[C@@H]21 [TRANDOLAPRIL] | 72.3 | 
45 | NC[C@H]1CC[C@H](C(=O)O)CC1 [TRANEXAMIC ACID] | 36.3 | 
46 | N[C@@H]1C[C@H]1c1ccccc1.N[C@H]1C[C@@H]1c1ccccc1.O=S(=O)(O)O [TRANYLCYPROMINE SULFATE] |  | Drug % control (mean): number of neurons normalized to untreated control: 21.59%
47 | O=c1n(CCCN2CCN(c3cccc(Cl)c3)CC2)nc2ccccn12 [TRAZODONE HYDROCHLORIDE] | 25.9 | 
48 | CN1CCN(CCCN2c3ccccc3Sc3ccc(C(F)(F)F)cc32)CC1 [TRIFLUOPERAZINE HYDROCHLORIDE] | 4.42 | 
49 | C[C@H](CCC(=O)O)[C@H]1CC[C@H]2[C@@H]3[C@@H](O)C[C@@H]4C[C@H](O)CC[C@]4(C)[C@H]3CC[C@]12C [URSODIOL] | 24.6 | 
50 | CN[C@H](CC(C)C)C(=O)N[C@H]1C(=O)N[C@@H](CC(N)=O)C(=O)N[C@H]2C(=O)N[C@H]3C(=O)N[C@H](C(=O)N[C@H](C(=O)O)c4cc(O)cc(O)c4-c4cc3ccc4O)[C@H](O)c3ccc(c(Cl)c3)Oc3cc2cc(c3O[C@@H]2O[C@H](CO)[C@@H](O)[C@H](O)[C@H]2O[C@H]2C[C@](C)(N)[C@H](O)[C@H](C)O2)Oc2ccc(cc2Cl)[C@H]1O [VANCOMYCIN HYDROCHLORIDE] |  | viability at 10 µM (24 h): 11.7%
51 | COc1ccc(C(CN(C)C)C2(O)CCCCC2)cc1 (stereo not shown) [VENLAFAXINE] | 72.5 | 
52 | COC(=O)[C@@H]1[C@H]2C[C@H]3c4[nH]c5ccccc5c4CCN3C[C@@H]2CC[C@@H]1O [YOHIMBINE HYDROCHLORIDE] | 100 | 
